Here are results for 20 molecules from US11098061B2 (Celgene CAR LLC, priority 2013, dated 2021).

Experiment [1] has as its target T1, MK2 (Homo sapiens (Human), UniProt P49137). As to the kind of experiment: MK2 modification assessment by whole protein mass spectrometry. In kind it is binding. The settings on record: intact MK2, 60 min, 10-fold excess of compound to protein. The procedure: Modification of MK2 is measured by whole protein MS analysis. […] 5 μL aliquots of the samples were diluted with 15 μL of 0.2% TFA prior to micro C4 ZipTipping directly onto the MALDI target using sinapinic acid as the desorption matrix (10 mg/ml in 0.1% TFA:Acetonitrile 50:50). Analysis was performed on a AB Sciex 4800 MALDI TOF/TOF retro fitted with an HM2 detector (CovalX). Percent modification of target MK2 (i.e., the percent of total MK2 modified by the test compound) for each compound was calculated by subtracting the centroid mass of the compound treated MK2 from the centroid mass of the control MK2 and dividing that value with the mass of the compound.

For experiment [2], the target named is T1, MK2. Nature of the experiment: MK2 cellular assay (Hsp27 phosphorylation in Thp-1 cells). The settings on record: differentiated Thp-1 cells, compound 1 hour, 50 ng/ml LPS 15 minutes, phosphorylation of Hsp27; read-out: MK2EC50. In kind it is cell-based. The procedure: Compounds were assayed in Thp-1 human acute monocytic leukemia cells to measure inhibition of MK2 activity. Thp-1 were grown in suspension in T225 flasks. Two days prior to assay, Thp-1 cells were spun down, counted and plated at 1×10^6 cells per well of a 12 well plate in complete media containing 10 ng/ml PMA (phorbol myristate acetate) to differentiate the cells. On day of assay, cells were washed with complete media, and compound was added to differentiated Thp-1 cells for 1 hour. Cells were washed again, and complete media containing 50 ng/ml LPS (lipopolysaccharide) was added. After 15 minutes, cells were washed once with PBS and lysed on ice with BioRad Bioplex lysis buffer. 20 μg total protein from lysates were loaded on gel and blots were probed for phosphorylation of the MK2 substrate Hsp27. Dose response inhibition of MK2 signaling in differentiated Thp-1 cells was used to determine the EC50 for compounds reported in Table A in the column entitled “MK2 EC50.”

The target of experiment [3] is p38a activated, mitogen-activated protein kinase-activated protein kinase 2 (MAPKAP-K2 or MK-2) enzyme (Homo sapiens (Human), UniProt P49137). As to the kind of experiment: MK2 Omnia continuous-read kinase assay for compound potency. In kind it is biochemical. The settings on record: [MK-2]=0.4 nM, [ATP]=1.0 mM, [ST3-Sox]=10 μM. The text has this:
The protocol below describes a continuous-read kinase assay optimized to measure potency of compounds against p38a activated, mitogen-activated protein kinase-activated protein kinase 2 (MAPKAP-K2 or MK-2) enzyme. The mechanics of the assay platform are best described by the vendor (Invitrogen, Carlsbad, Calif.) on their website at the following URL: invitrogen.com/search/global/searchAction. action?resultPage=1 &resultsPerPage=15 &query=om nia&personaFilterTerm=Support+%26+Troubleshoot
Kinase reactions were started with the addition of 40 μL of MK-2 enzyme and monitored every 71 seconds for 30-240 minutes at λex360/λem485 in a Synergy^2, Synergy^4 or Synergy H^4 plate reader from BioTek (Winooski, Vt.). […] Initial velocity (0 minutes to +30 minutes) from each reaction was estimated from the slope of a plot of relative fluorescence units vs time (minutes) and normalized to the no enzyme and no inhibitor control groups for % Inhibition. The resulting % Inhibition values were then plotted against inhibitor concentration to estimate IC50 from log[Inhibitor] vs Response, Variable Slope model in GraphPad Prism from GraphPad Software (San Diego, Calif.).
[MK-2]=0.4 nM, [ATP]=1.0 mM and [ST3-Sox]=10 μM (ATP ^appKM=8-10 μM)

T1 sequence (P49137 whole entry): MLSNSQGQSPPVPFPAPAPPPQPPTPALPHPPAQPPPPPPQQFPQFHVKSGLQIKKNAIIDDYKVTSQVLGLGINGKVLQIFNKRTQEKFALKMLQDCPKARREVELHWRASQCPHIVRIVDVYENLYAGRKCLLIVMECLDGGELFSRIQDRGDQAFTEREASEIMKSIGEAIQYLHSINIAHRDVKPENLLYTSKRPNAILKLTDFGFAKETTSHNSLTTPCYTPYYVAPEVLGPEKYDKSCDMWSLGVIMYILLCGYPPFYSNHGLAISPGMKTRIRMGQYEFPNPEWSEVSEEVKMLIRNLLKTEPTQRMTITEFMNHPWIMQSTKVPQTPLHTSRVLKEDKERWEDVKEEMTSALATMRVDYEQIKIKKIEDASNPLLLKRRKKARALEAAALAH
Chain of p38a activated, mitogen-activated protein kinase-activated protein kinase 2 (MAPKAP-K2 or MK-2) enzyme (P49137 whole entry): as above

As a reminder, the IC50 is the point on the concentration scale where inhibition reaches its midpoint. `C=CC(=O)Nc1ccccc1C(=O)Nc1cc(-c2cc3c([nH]2)C2(CCCNC2)CNC3=O)ccn1` (racemic) [Compound I-4, 2-acrylamido-N-(4-(4′-oxo-1′,4′,5′,6′-tetrahydrospiro[piperidine-3,7′-pyrrolo[3,2-c]pyridin]-2′-yl)pyridin-2-yl)benzamide]: the “MK2 Mass Mod” value in experiment [1] is “E (mass modification of ≥70%)”. Also, the EC50 in experiment [2] is over 1000 nM. Further, the IC50 in experiment [3] is under 100 nM.

Turning to `C=CC(=O)Nc1cc(-c2nccc(-c3cc4c([nH]3)C3(CCCNC3)CNC4=O)n2)ccc1OCCOC` (racemic) [Compound I-7, N-(2-(2-methoxyethoxy)-5-(4-(4′-oxo-1′,4′,5′,6′-tetrahydrospiro[piperidine-3,7′-pyrrolo[3,2-c]pyridin]-2′-yl)pyrimidin-2-yl)phenyl)acrylamide], in experiment [1], the “MK2 Mass Mod” value is “E (mass modification of ≥70%)”. Further, the EC50 in experiment [2] lay in the range of 501 to 999 nM. In addition, the IC50 in experiment [3] was under 100 nM.

For the molecule `C=CC(=O)Nc1cc(C(=O)Nc2cc(-c3cc4c([nH]3)C3(CCCNC3)CNC4=O)ccn2)ccc1OC(F)(F)F` (racemic) [Compound I-23, 3-acrylamido-N-(4-(4′-oxo-1′,4′,5′,6′-tetrahydrospiro[piperidine-3,7′-pyrrolo[3,2-c]pyridin]-2′-yl)pyridin-2-yl)-4-(trifluoromethoxy)benzamide], the “MK2 Mass Mod” value in experiment [1] is listed as “E (mass modification of ≥70%)”. Moreover, the EC50 in experiment [2] lay within 501 to 999 nM. Also, the IC50 in experiment [3] was under 100 nM.

For `C=CC(=O)N1CC(C)Oc2ccc(NC(=O)c3ccc4cc5n(c4c3)C3(CCC3)CNC5=O)cc21` (racemic) [Compound V-50, N-(4-acryloyl-2-methyl-3,4-dihydro-2H-benzo[b][1,4]oxazin-6-yl)-1′-oxo-2′,3′-dihydro-1′H-spiro[cyclobutane-1,4′-pyrazino[1,2-a]indole]-7′-carboxamide (racemic)], the “MK2 Mass Mod” value in experiment [1] is “E (mass modification of ≥70%)”. The EC50 in experiment [2] was in the range of 101 to 500 nM. Further, the IC50 in experiment [3] is under 100 nM.

Regarding `C=CC(=O)NC1CCCC1NC(=O)c1ccc2cc3n(c2c1)C1(CCC1)CNC3=O` (racemic) [Compound V-56, N-trans-(2-acrylamidocyclopentyl)-1′-oxo-2′,3′-dihydro-1′H-spiro[cyclobutane-1,4′-pyrazino[1,2-a]indole]-7′-carboxamide (racemic)], the “MK2 Mass Mod” value in experiment [1] is reported as “F (mass modification of 31-69%)”. Moreover, the EC50 in experiment [2] was over 1000 nM. The half-maximal inhibitory concentration (IC50) in experiment [3] was over 1000 nM.

Take `C=CC(=O)Nc1cc(-c2cc(-c3cc4c([nH]3)C3(CCCNC3)CNC4=O)ccn2)ccc1OCCOC` (stereo not drawn) [Compound I-3]: the “MK2 Mass Mod” value in experiment [1] is “E (mass modification of ≥70%)”. Moreover, the EC50 in experiment [2] is over 1000 nM. In experiment [3], the half-inhibitory concentration (IC50) is under 100 nM.

Regarding `C=CC(=O)Nc1cc(-c2cc(-c3cc4c([nH]3)C3(CCCNC3)CNC4=O)ccn2)ccc1F` (stereo not drawn) [Compound I-8], in experiment [1], the “MK2 Mass Mod” value is “E (mass modification of ≥70%)”. Also, the EC50 in experiment [2] was over 1000 nM. The half-maximal inhibitory concentration (IC50) in experiment [3] was under 100 nM.

As for `C=CC(=O)Nc1cc(-c2cc(-c3cc4c([nH]3)C3(CCCNC3)CNC4=O)ccn2)cc(C(F)(F)F)c1` (stereo not drawn) [Compound I-9], the “MK2 Mass Mod” value in experiment [1] was “E (mass modification of ≥70%)”. Further, the EC50 in experiment [2] is over 1000 nM. Further, in experiment [3], the half-maximal inhibitory concentration (IC50) is under 100 nM.

`C=CC(=O)N1CCOc2ccc(NC(=O)c3ccc4cc5n(c4c3)CCNC5=O)cc21` [Compound V-6, N-(4-acryloyl-3,4-dihydro-2H-benzo[b][1,4]oxazin-6-yl)-1-oxo-1,2,3,4-tetrahydropyrazino[1,2-a]indole-7-carboxamide]: the “MK2 Mass Mod” value in experiment [1] is “E (mass modification of ≥70%)”. Also, the EC50 in experiment [2] was over 1000 nM. In addition, the IC50 in experiment [3] was under 100 nM.

For the molecule `C=CC(=O)Nc1cc(NC(=O)c2ccc3cc4n(c3c2)C2(CCC2)CNC4=O)ccc1N1CCN(C)CC1` [Compound V-15, N-(3-acrylamido-4-(4-methylpiperazin-1-yl)phenyl)-1′-oxo-2′,3′-dihydro-1′H-spiro[cyclobutane-1,4′-pyrazino[1,2-a]indole]-7′-carboxamide], the “MK2 Mass Mod” value in experiment [1] is reported as “E (mass modification of ≥70%)”. The EC50 in experiment [2] was in the range of 101 to 500 nM. The 50% inhibitory concentration (IC50) in experiment [3] is under 100 nM.

Consider `C=CC(=O)Nc1cc(C)cc(-c2cc3c(ccc4c5c([nH]c43)CCC5=O)cn2)c1` [II-e-22, N-(3-methyl-5-(7-oxo-7,8,9,1-tetrahydrocyclopenta[4,5]pyrrolo[2,3-f]isoquinolin-2-yl)phenyl)acrylamide], for which, in experiment [2], the EC50 fell in the range of 101 to 500 nM. Further, in experiment [3], the half-maximal inhibitory concentration (IC50) was in the range of 101 to 500 nM.

In the case of `C=CC(=O)N1CCC[C@H](NC(=O)c2ccc3sc4c(c3c2)NC[C@@H](C)NC4=O)C1` [III-41], the EC50 in experiment [2] was in the range of 101 to 500 nM.

For `C=CS(=O)(=O)N1CCC[C@H](NC(=O)c2ccc3sc4c(c3c2)NC[C@@H](C)NC4=O)C1` [III-43], the EC50 in experiment [2] is under 100 nM.

For `C=CC(=O)Nc1cc(-c2ccc3c(ccc4sc5c(c43)NC[C@@H](C)NC5=O)n2)ccc1OC(F)(F)F` [III-45, (R)—N-(5-(10-methyl-8-oxo-9,10,11,12-tetrahydro-8H-[1,4]diazepino[5′,6′:4,5]thieno[3,2-f]quinolin-3-yl)-2-(trifluoromethoxy)phenyl)acrylamide], the EC50 in experiment [2] is under 100 nM. In experiment [3], the IC50 is under 100 nM.

For `C=CC(=O)NC1CN(C)CC1NC(=O)c1ccc2sc3c(c2c1)NC[C@@H](C)NC3=O` (stereo partly drawn) [III-50], in experiment [1], the “MK2 Mass Mod” value is “G (mass modification ≤30%)”. In experiment [3], the 50% inhibitory concentration (IC50) is under 100 nM.

With `C=CC(=O)N1CC(C)(C)Oc2ccc(-c3ccc4c(ccc5sc6c(c54)NC[C@@H](C)NC6=O)n3)cc21` [III-55, (R)-3-(4-acryloyl-2,2-dimethyl-3,4-dihydro-2H-benzo[b][1,4]oxazin-6-yl)-10-methyl-9,10,11,12-tetrahydro-8H-[1,4]diazepino[5′,6′:4,5]thieno[3,2-f]quinolin-8-one], the “MK2 Mass Mod” value in experiment [1] is “G (mass modification ≤30%)”. Besides, the IC50 in experiment [3] is under 100 nM.

`C=CC(=O)Nc1cc(NC(=O)c2ccc3sc4c(c3c2)NC[C@@H](C)NC4=O)ccc1C(F)(F)F` [III-57, (R)—N-(3-acrylamido-4-(trifluoromethyl)phenyl)-3-methyl-5-oxo-2,3,4,5-tetrahydro-1H-benzo[4,5]thieno[3,2-e][1,4]diazepine-9-carboxamide]: the “MK2 Mass Mod” value in experiment [1] is recorded as “G (mass modification ≤30%)”. Besides, the IC50 in experiment [3] was 501 to 999 nM.

For the molecule `C=CC(=O)Nc1cc(-c2cc(-c3cc4c(s3)C(=O)N[C@H](C)CN4)ccn2)ccc1OCCOC` [III-d-1, (R)—N-(2-(2-methoxyethoxy)-5-(4-(3-methyl-5-oxo-2,3,4,5-tetrahydro-1H-thieno[3,2-e][1,4]diazepin-7-yl)pyridin-2-yl)phenyl)acrylamide], in experiment [1], the “MK2 Mass Mod” value is “E (mass modification of ≥70%)”. Besides, the IC50 in experiment [3] is over 1000 nM.

As for `C=CC(=O)Nc1cc(Nc2c(C)c(NC3CCCNC3)nc3ccnn23)ccc1OCC` (stereo not drawn) [IV-1, N-(2-ethoxy-5-((6-methyl-5-(piperidin-3-ylamino)pyrazolo [1,5-a]pyrimidin-7-yl)amino)phenyl)acrylamide], the “MK2 Mass Mod” value in experiment [1] was “G (mass modification ≤30%)”. Further, in experiment [3], the IC50 was 501 to 999 nM.

Take `C=CC(=O)Nc1cc(-c2cc(Nc3c(N[C@H](C)c4ccccc4)c(=O)c3=O)ccn2)ccc1OC` [VI-9, (R)—N-(5-(4-((3,4-dioxo-2-((1-phenylethyl)amino)cyclobut-1-en-1-yl)amino)pyridin-2-yl)-2-methoxyphenyl)acrylamide]: the “MK2 Mass Mod” value in experiment [1] is recorded as “G (mass modification ≤30%)”. Besides, the IC50 in experiment [3] is over 1000 nM.
